“And” between values parts separate entries of the source, which are not always exact repeats. Identical values can stand only once. “Also recorded” adds a separate entry of the source.
How the values were obtained:
[1] = Sweet taste / sweetness enhancing properties of 6″-O-acetylphloridzin; conditions: in vivo
Description: It can therefore not be concluded that any dihydrochalcone glycoside carrying an acetyl substituent will taste sweet or be able to enhance or modulate sweetness.

[2] = Sensory profile of sugar solution with added compounds; assay type: in vivo; conditions: 80 mg/kg in 5% sucrose solution
[3] = Duo test (paired comparison, trained sensory panel) of compounds against 5% sucrose solution; assay type: in vivo; conditions: 50 mg/kg in 5% sucrose solution; for sweet modul. activity (%): 20 panelists, perceived sweeter than without addition
Description: The sensory impact of trilobatin and compound (1) have been compared by a trained sensory panel (Table 1) using a series of paired comparison tests. The samples were coded and randomized (referred to as Duo test):
Each of compound (1) and trilobatin has been compared with a 5% sucrose solution in water.

[4] = cited from earlier work
[5] = Intrinsic sweetness by Duo test against 1.5% sucrose; assay type: in vivo
Description: 200 g/l L. litseifolius leaf extract (47% trilobatin, 7% phloridizin) was dissolved in triacetin and reacted with lipase Novozyme 435 for 6 h at 80° C. After cooling the mixture, the solution was filtrated. The solution contained 4.2% compound 1. The intrinsic sweetness of the solution was determined by a Duo test comparing different concentrations of this solution with a 1.5% sucrose sample. It turned out that 0.15% of the solution (containing 63 mg/kg compound 1) was as sweet as 1.5% sucrose.
The intrinsic sweetness of pure compound (1) (>95%) was determined by a panel of 20 trained panellists. Thereby, a 1.5% sucrose solution was compared by a Duo test with 65 mg/kg of compound (1) in water. […] The intrinsic sweetness of compound (1) in a mixture of trilobatin and diacetyl trilobatins was similar than of pure compound (1).

[6] = Descriptor intensities (0-9) in orange softdrink base, panel of five flavorists; assay type: in vivo; conditions: for Lingering sweetness (0-9) B / Off note (0-9) B / Onset sweetness (0-9) B / Overall sweetness (0-9) B / acidity (0-9) B / fruity (0-9) B / juicy (0-9) B / mouthfeel (0-9) B / orange (0-9) B: B: + 20 mg/kg G92828 in orange softdrink base; for Lingering sweetness (0-9) B / Off note (0-9) B / Onset sweetness (0-9) B / Overall sweetness (0-9) B / acidity (0-9) B / fruity (0-9) B / juicy (0-9) B / mouthfeel (0-9) B / orange (0-9) B / Lingering sweetness (0-9) A / Off note (0-9) A / Onset sweetness (0-9) A / Overall sweetness (0-9) A / acidity (0-9) A / fruity (0-9) A / juicy (0-9) A / mouthfeel (0-9) A / orange (0-9) A: RS 200, PD 120, HT 10, PH 30 mg/kg, n=5; for Lingering sweetness (0-9) Δ / Off note (0-9) Δ / Onset sweetness (0-9) Δ / Overall sweetness (0-9) Δ / acidity (0-9) Δ / fruity (0-9) Δ / juicy (0-9) Δ / mouthfeel (0-9) Δ / orange (0-9) Δ: difference B vs A (effect of 20 mg/kg G92828); for Lingering sweetness (0-9) A / Off note (0-9) A / Onset sweetness (0-9) A / Overall sweetness (0-9) A / acidity (0-9) A / fruity (0-9) A / juicy (0-9) A / mouthfeel (0-9) A / orange (0-9) A: A: substance alone in orange softdrink base
Description: Different descriptors relevant for the overall liking of an orange softdrink were applied and the differences in intensities of each descriptor (Δ) of FMP (A) to FMP+ compound (1) (B) were determined by a panel of five flavorists (n=5) and given as intensities from 0-9 as shown in Tables 4-12. The panelists were asked to neutralise with tap water between each sample and the intensity of the descriptors of each sample were defined before tasting the next sample. The tasting of each RS, PD, HT or PH (A) were followed by the samples with added RS, PD, HT or PH+compound (1) (B) with each being compared to the intensities of the base.

[7] = soft drink base and in combination with RS, PD, HT and PH

CC(=O)OC[C@H]1O[C@@H](Oc2cc(O)cc(O)c2C(=O)CCc2ccc(O)cc2)[C@H](O)[C@@H](O)[C@@H]1O [6″-O-Acetylphloridzin]
sweet taste or sweetness enhancing properties [1]: did not show any sweet taste or sweetness enhancing properties

O=C(CCc1ccc(O)cc1)c1c(O)cc(O[C@@H]2O[C@H](CO)[C@@H](O)[C@H](O)[C@H]2O)cc1O [trilobatin, phloretin-4′-β-D-glucopyranoside]
Aftertaste [2]: 1
Impact [2]: 3
Intensity [2]: 4
Mouthfeel [2]: 5
significance of sweet modulating activity / sensory effect [3]: did not have a significant sensory effect; also recorded: did not show a significant sensory effect
sweet modul. activity (%) [3]: 1.66%
taste at 20 mg/kg ([4]; 20 mg/kg): does not taste sweet
taste at 100 mg/kg ([4]; 100 mg/kg, compared to 0.5% sucrose solution): weakly sweet
concentration above which sweetness can be detected ([4]; in vivo): above 60 mg/kg

CC(=O)OC[C@H]1O[C@@H](Oc2cc(O)c(C(=O)CCc3ccc(O)cc3)c(O)c2)[C@H](O)[C@@H](O)[C@@H]1O [compound (1), 6″-O-acetyltrilobatin]
Aftertaste [2]: 1
Impact [2]: 4
Intensity [2]: 6
Mouthfeel [2]: 5
significance of sweet modulating activity / sensory effect [3]: significant
sweet modul. activity (%) [3]: 27.5% and 27.54%
concentration of compound 1 contained in solution as sweet as 1.5% sucrose ([5]; in enzymatically acetylated L. litseifolius leaf extract solution (4.2% compound 1) dosed at 0.15%): 63 mg/kg
intrinsic sweetness in a mixture of trilobatin and diacetyl trilobatins compared with pure compound ([5]; in vivo): similar
Lingering sweetness (0-9) B [6]: 0.0
Off note (0-9) B [6]: 0.0
Onset sweetness (0-9) B [6]: 4.5
Overall sweetness (0-9) B [6]: 6.0
acidity (0-9) B [6]: 3.5
fruity (0-9) B [6]: 5.0
juicy (0-9) B [6]: 4.0
mouthfeel (0-9) B [6]: 4.0
orange (0-9) B [6]: 5.0
effect on perceived acidity ([6]; base, RS, HT and PH): reducing perceived acidity
Lingering sweetness (0-9) Δ [6]: 0.0
Off note (0-9) Δ [6]: 0.0
Onset sweetness (0-9) Δ [6]: 0.5
Overall sweetness (0-9) Δ [6]: 1.0
acidity (0-9) Δ [6]: −0.5
fruity (0-9) Δ [6]: 0.0
juicy (0-9) Δ [6]: 0.0
mouthfeel (0-9) Δ [6]: 0.5
effect on acidity ([6]; in combination with PD): no reduction in acidity
effect on lingering aftertaste ([6]; in combination with PD): slightly reduced
effect on overall sweetness ([6]; in combination with PH, compared to PH): no increase in overall sweetness
effect on lingering aftertaste ([6]; in combination with RS): slight increase in lingering aftertaste
effect on fruity notes ([6]; in combination with RS and PD): increasing fruity notes
effect on overall sweetness ([6]; in combination with RS, PD and HT): increased
effect on onset sweetness ([6]; in combination with RS, PD, HT and PH): increases the onset sweetness
effect on juicy character ([6]; in combination with each tested FMP): increasing the juicy character
effect on intensity of orange flavor [6, 7]: no impact
effect on off notes [6, 7]: no impact
effect on juicy notes ([6]; test base alone): no effect
effect on mouthfeel ([6]; test base and every tested FMP): improves the mouthfeel

O=C(CCc1ccc(O)cc1)c1c(O)cc(O)cc1O [PH, Phloretin]
Lingering sweetness (0-9) A [6]: 0.0
Off note (0-9) A [6]: 0.0
Onset sweetness (0-9) A [6]: 5.0
Overall sweetness (0-9) A [6]: 6.5
acidity (0-9) A [6]: 3.5
fruity (0-9) A [6]: 5.5
juicy (0-9) A [6]: 5.0
mouthfeel (0-9) A [6]: 4.0
orange (0-9) A [6]: 5.0
Lingering sweetness (0-9) B [6]: 0.0
Off note (0-9) B [6]: 0.0
Onset sweetness (0-9) B [6]: 6.0
Overall sweetness (0-9) B [6]: 6.5
acidity (0-9) B [6]: 3.0
fruity (0-9) B [6]: 5.5
juicy (0-9) B [6]: 5.5
mouthfeel (0-9) B [6]: 5.0
orange (0-9) B [6]: 5.0
Lingering sweetness (0-9) Δ [6]: 0.0
Off note (0-9) Δ [6]: 0.0
Onset sweetness (0-9) Δ [6]: 1.0
Overall sweetness (0-9) Δ [6]: 0.0
acidity (0-9) Δ [6]: −0.5
fruity (0-9) Δ [6]: 0.0
juicy (0-9) Δ [6]: 0.5
mouthfeel (0-9) Δ [6]: 1.0
orange (0-9) Δ [6]: 0.0

COc1ccc([C@@H]2CC(=O)c3c(O)cc(O)cc3O2)cc1O [HT, Hesperetin]
Lingering sweetness (0-9) A [6]: 0.0
Off note (0-9) A [6]: 0.0
Onset sweetness (0-9) A [6]: 5.0
Overall sweetness (0-9) A [6]: 6.0
acidity (0-9) A [6]: 4.0
fruity (0-9) A [6]: 5.0
juicy (0-9) A [6]: 4.0
mouthfeel (0-9) A [6]: 4.0
orange (0-9) A [6]: 5.0
Lingering sweetness (0-9) B [6]: 0.0
Off note (0-9) B [6]: 0.0
Onset sweetness (0-9) B [6]: 6.0
Overall sweetness (0-9) B [6]: 7.5
acidity (0-9) B [6]: 3.5
fruity (0-9) B [6]: 5.0
juicy (0-9) B [6]: 5.0
mouthfeel (0-9) B [6]: 4.5
orange (0-9) B [6]: 5.0
Lingering sweetness (0-9) Δ [6]: 0.0
Off note (0-9) Δ [6]: 0.0
Onset sweetness (0-9) Δ [6]: 1.0
Overall sweetness (0-9) Δ [6]: 1.5
acidity (0-9) Δ [6]: −0.5
fruity (0-9) Δ [6]: 0.0
juicy (0-9) Δ [6]: 1.0
mouthfeel (0-9) Δ [6]: 0.5
orange (0-9) Δ [6]: 0.0

Reference: patent US20240407414A1, “DIHYDROCHALCONE DERIVATIVES” (SYMRISE AG, priority 2021, published 2024)
